The source of these data is paper PMC4140855, “Production of an Attenuated Phenol-Soluble Modulin Variant Unique to the MRSA Clonal Complex 30 Increases Severity of Bloodstream Infection” (PLoS Pathogens, 2014).

One assay addresses T1, FPR1 (Homo sapiens, UniProt P21462).
T1 construct: expressed in transfected cells; host or cells: HL60 cells, stably transfected
T1 sequence (P21462 1-350): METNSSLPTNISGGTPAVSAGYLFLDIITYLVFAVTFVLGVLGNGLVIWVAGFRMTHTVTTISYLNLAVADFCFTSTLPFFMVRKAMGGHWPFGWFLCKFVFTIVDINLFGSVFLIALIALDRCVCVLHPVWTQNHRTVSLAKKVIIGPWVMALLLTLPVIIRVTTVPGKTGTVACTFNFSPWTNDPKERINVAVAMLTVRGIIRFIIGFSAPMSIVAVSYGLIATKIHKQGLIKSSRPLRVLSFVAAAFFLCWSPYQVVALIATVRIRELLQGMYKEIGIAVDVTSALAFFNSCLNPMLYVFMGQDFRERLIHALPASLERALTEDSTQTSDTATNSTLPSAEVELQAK
The assay is described as follows: Ca2+ flux in HL60 cells stably transfected with FPR1. In kind it is cell-based. The protocol: Next, we analyzed Ca^2+ flux as a general measure to test for neutrophil activation, as used in previous studies. HL60 cells stably transfected with different FPR receptor genes were used to determine which FPR receptors are differentially activated by PSMα3 versus PSMα3N22Y (Fig. 4A). […] At a peptide concentration of 100 nM, we observed a difference of ∼factor 2 in chemotactic activity comparing the two peptides when FPR1 recognition was inhibited by CHIPS, likely attributable to FPR2-mediated recognition. Owing to the overall ∼10 times lower capacity to stimulate FPR receptors other than FPR2, we observed no chemotaxis at that peptide concentration with addition of the FPR2 blocking agent FLIPr.
(A) Differential activation of FPRs by PSMα3 versus PSMα3N22Y was measured using synthetic peptides and Ca^2+ flux observed in HL60 cells stably transfected with the corresponding FPR genes as readout, using three biological and two technical replicates. The calculated Kd values are shown on the right. […] (B) Ca^2+ flux in human neutrophils upon addition of PSMα3 or PSMα3N22Y and inhibition by FLIPr (FPR2 inhibitor) or CHIPS (FPR1 inhibitor). […]
Human neutrophils were isolated from venous blood of healthy donors as described, [39]. Neutrophil chemotaxis and Ca^2+ flux were determined as previously described, [24]. […] Chemotaxis of neutrophils was determined using a transwell system (Costar) with analysis of neutrophil migration using fluorescence labeling. Calcium fluxes were monitored as a surrogate marker for chemotaxis since it can be measured more robustly and accurately than chemotaxis. For measurement of Ca^2+ fluxes, 5×10^6 neutrophils/ml were labeled with a fluorescent dye and analyzed with a FACScalibur (Becton Dickinson) as described. […] Measurements of 2,000 events were performed and Ca^2+ flux was expressed as relative fluorescence corrected for buffer controls. […] At the desired times, PMN lysis was determined by release of lactate dehydrogenase (LDH) (Cytotoxicity Detection Kit, Roche Applied Sciences).
(In general: Calcium assays in cells follow changes in intracellular calcium, usually with a dye or a luminescent sensor.)

Another assay concerns human neutrophils. The assay is described as follows: Chemotaxis of human neutrophils (transwell migration). Type of assay: cell-based. Conditions: synthetic peptides, all tested concentrations, three donors, quadruplicate, compared to PSMα3N22Y. The protocol:
Figure 3 PSMα3N22Y has decreased chemotactic activity toward human neutrophils. (A) Chemotaxis of human neutrophils (neutrophil migration) was measured using a transwell system with synthetic peptides at the indicated concentrations. Neutrophils were from three donors and the measurements were performed in quadruplicate. **, p<0.01; ****, p<0.0001. (B) Chemotaxis of human neutrophils tested with culture filtrates (diluted 1∶100) of strains MRSA252 (252, expressing PSMα3N22Y) and 252* (MRSA252 altered to express PSMα3); ****, p<0.0001. Data are from two donors with triplicate measurements. […]
Human neutrophils were isolated from venous blood of healthy donors as described, [39]. Neutrophil chemotaxis and Ca^2+ flux were determined as previously described, [24]. […] Chemotaxis of neutrophils was determined using a transwell system (Costar) with analysis of neutrophil migration using fluorescence labeling. Calcium fluxes were monitored as a surrogate marker for chemotaxis since it can be measured more robustly and accurately than chemotaxis. For measurement of Ca^2+ fluxes, 5×10^6 neutrophils/ml were labeled with a fluorescent dye and analyzed with a FACScalibur (Becton Dickinson) as described. […] Measurements of 2,000 events were performed and Ca^2+ flux was expressed as relative fluorescence corrected for buffer controls. […]

For `CSCC[C@H](NC=O)C(=O)N[C@@H](CCC(=O)O)C(=O)N[C@@H](Cc1ccccc1)C(=O)N[C@H](C(=O)N[C@@H](C)C(=O)N[C@@H](CCCCN)C(=O)N[C@@H](CC(C)C)C(=O)N[C@@H](Cc1ccccc1)C(=O)N[C@@H](CCCCN)C(=O)N[C@@H](Cc1ccccc1)C(=O)N[C@@H](Cc1ccccc1)C(=O)N[C@@H](CCCCN)C(=O)N[C@@H](CC(=O)O)C(=O)N[C@@H](CC(C)C)C(=O)N[C@@H](CC(C)C)C(=O)NCC(=O)N[C@@H](CCCCN)C(=O)N[C@@H](Cc1ccccc1)C(=O)N[C@@H](CC(C)C)C(=O)NCC(=O)N[C@@H](CC(N)=O)C(=O)N[C@@H](Cc1ccc(O)cc1)C(=O)O)C(C)C` [PSMα3N22Y], the “Differential activation of FPR receptors by the two peptides” value at FPR1 (Ca2+ flux, transfected HL60 cells, not FPR2 and FPR3) was “only FPR1 was activated differentially”. Further, the Kd (usually the equilibrium constant for the complex coming apart) on FPR1 (one site-binding model from Ca2+ flux, synthetic peptides, FPR1-transfected HL60 cells, three biological and two technical replicates, error = standard deviation) came out at 3.04 ± 0.682 µM. Further, at FPR1 (significant difference), the “Factor of difference in FPR1 Kd, PSMα3 versus PSMα3N22Y” value is reported as ~5.
Turning to `CSCC[C@H](NC=O)C(=O)N[C@@H](CCC(=O)O)C(=O)N[C@@H](Cc1ccccc1)C(=O)N[C@H](C(=O)N[C@@H](C)C(=O)N[C@@H](CCCCN)C(=O)N[C@@H](CC(C)C)C(=O)N[C@@H](Cc1ccccc1)C(=O)N[C@@H](CCCCN)C(=O)N[C@@H](Cc1ccccc1)C(=O)N[C@@H](Cc1ccccc1)C(=O)N[C@@H](CCCCN)C(=O)N[C@@H](CC(=O)O)C(=O)N[C@@H](CC(C)C)C(=O)N[C@@H](CC(C)C)C(=O)NCC(=O)N[C@@H](CCCCN)C(=O)N[C@@H](Cc1ccccc1)C(=O)N[C@@H](CC(C)C)C(=O)NCC(=O)N[C@@H](CC(N)=O)C(=O)N[C@@H](CC(N)=O)C(=O)O)C(C)C` [PSMα3], the “Capacity to cause neutrophil chemotaxis” value in the assay on human neutrophils is given as “about twice higher than that caused by PSMα3N22Y at all tested concentrations”.
